According to US20250388565A1, “ESTROGEN RECEPTOR ALPHA DEGRADERS AND METHODS OF USE THEREOF” (Relay Therapeutics, Inc., priority 2022, published 2025):

biological target: T1, ERα protein (HiBiT-tagged) in ESR1_HiBiT KI MCF7 cells (Homo sapiens, UniProt P03372); assay: Nano Glo HiBiT Lytic Degradation Assay; assay type: cell-based; settings: 6 hours with compound, 14-point dose response 1:3, bell-shape curve fit, half-maximal effect of first Hill model, read-out: MCF7 ESR1 HiBiT - (DC50)
T1 sequence (P03372 1-595): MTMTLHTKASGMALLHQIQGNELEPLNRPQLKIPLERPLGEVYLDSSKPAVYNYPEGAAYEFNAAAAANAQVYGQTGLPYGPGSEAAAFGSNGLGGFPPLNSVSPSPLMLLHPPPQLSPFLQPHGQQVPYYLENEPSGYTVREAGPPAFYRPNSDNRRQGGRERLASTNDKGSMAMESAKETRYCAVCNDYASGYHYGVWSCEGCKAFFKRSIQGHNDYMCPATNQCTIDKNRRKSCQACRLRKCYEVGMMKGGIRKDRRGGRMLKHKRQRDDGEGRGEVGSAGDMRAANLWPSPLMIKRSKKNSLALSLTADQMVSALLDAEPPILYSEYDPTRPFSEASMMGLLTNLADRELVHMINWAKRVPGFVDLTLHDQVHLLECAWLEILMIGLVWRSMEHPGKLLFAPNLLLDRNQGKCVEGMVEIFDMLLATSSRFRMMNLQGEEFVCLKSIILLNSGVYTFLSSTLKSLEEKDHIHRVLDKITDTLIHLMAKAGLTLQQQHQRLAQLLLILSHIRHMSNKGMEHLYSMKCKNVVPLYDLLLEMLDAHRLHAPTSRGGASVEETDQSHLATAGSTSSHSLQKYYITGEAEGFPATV
Outline: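 HiBiT-tagged endogenous ERα remaining in MCF7 knock-in cells was quantified by lytic luminescence after a 6 h treatment. DC50 values derive from a bell-shaped curve, taken at the first Hill component's half-maximal effect.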

DC50	Structure (SMILES)
2 nM	C[C@H]1CN(c2ccc3c(c2)CN([C@H]2CCC(=O)NC2=O)C3=O)CCN1CC1CCN(c2ccc([C@@H]3c4ccc(O)cc4CC[C@@H]3c3ccccc3)cc2)CC1 (single isomer, unassigned) [II-1]
6 nM	C[C@@H]1CN(CC2CCN(c3ccc([C@@H]4c5ccc(O)cc5CC[C@@H]4c4ccccc4)cc3)CC2)CCN1c1ccc2c(c1)CN([C@H]1CCC(=O)NC1=O)C2=O (single isomer, unassigned) [II-3]
1140 nM	C[C@@H]1CN(CC2CCN(c3ccc([C@H]4c5ccc(O)cc5CC[C@H]4c4ccccc4)cc3)CC2)CCN1c1ccc2c(c1)CN([C@H]1CCC(=O)NC1=O)C2=O (single isomer, unassigned) [II-4]
5 nM	C[C@H]1CN(CC2CCN(c3ccc([C@@H]4c5ccc(O)cc5CC[C@@H]4c4ccccc4)cc3)CC2)CCN1c1ccc2c(c1)CN([C@H]1CCC(=O)NC1=O)C2=O (single isomer, unassigned) [II-10]
≥ 10000 nM	C[C@H]1CN(c2ccc3c(c2)CN([C@H]2CCC(=O)NC2=O)C3=O)CCN1CC1CCN(c2ccc([C@H]3c4ccc(O)cc4CC[C@H]3c3ccccc3)cc2)CC1 (single isomer, unassigned) [II-11]
≥ 10000 nM	C[C@H]1CN(CC2CCN(c3ccc([C@H]4c5ccc(O)cc5CC[C@H]4c4ccccc4)cc3)CC2)CCN1c1ccc2c(c1)CN([C@H]1CCC(=O)NC1=O)C2=O (single isomer, unassigned) [II-12]
≥ 10000 nM	C[C@@H]1CN(c2ccc3c(c2)CN([C@H]2CCC(=O)NC2=O)C3=O)CCN1CC1CCN(c2ccc([C@H]3c4ccc(O)cc4CC[C@H]3c3ccccc3)cc2)CC1 (single isomer, unassigned) [II-15]

More lines, now with the values behind:

Structure (SMILES)	DC50
O=C1CCC(c2ccc(N3CCC4(CCN(CC5CCN(c6ccc([C@@H]7c8ccc(O)cc8CC[C@@H]7c7ccccc7)cc6)CC5)C4)CC3)cc2)C(=O)N1 (single isomer, unassigned) [Compound I-421]	0.77 nM
O=C1CCC(c2ccc3c(c2)C[C@@H](N2CCN(CC4CCN(c5ccc([C@@H]6c7ccc(O)cc7CC[C@@H]6c6ccccc6)cc5)CC4)CC2)CC3)C(=O)N1 (single isomer, unassigned) [Compound I-422]	141 nM
O=C1CCC(c2ccc3c(c2)C[C@H](N2CCN(CC4CCN(c5ccc([C@@H]6c7ccc(O)cc7CC[C@@H]6c6ccccc6)cc5)CC4)CC2)CC3)C(=O)N1 (single isomer, unassigned) [Compound I-423]	≥ 10000 nM
O=C1CC[C@H](N2Cc3cc(N4C[C@H]5C[C@@H]4CN5CC4CCN(c5ccc([C@@H]6c7ccc(O)cc7CC[C@@H]6c6ccccc6)cc5)CC4)ccc3C2=O)C(=O)N1 (single isomer, unassigned) [II-5]	2 nM
O=C1CC[C@H](N2Cc3cc(N4C[C@H]5C[C@@H]4CN5CC4CCN(c5ccc([C@H]6c7ccc(O)cc7CC[C@H]6c6ccccc6)cc5)CC4)ccc3C2=O)C(=O)N1 (single isomer, unassigned) [II-6]	≥ 10000 nM
CN(CC1CCN(c2ccc([C@@H]3c4ccc(O)cc4CC[C@@H]3c3ccccc3)cc2)CC1)C1CN(c2ccc3c(c2)CN(C2CCC(=O)NC2=O)C3=O)C1 (single isomer, unassigned) [II-9]	21 nM
O=C1CC[C@H](N2Cc3cc(N4CCN(C[C@H]5CCN(c6ccc([C@@H]7c8ccc(O)cc8CC[C@@H]7c7ccccc7)cc6)C5)CC4)ccc3C2=O)C(=O)N1 (single isomer, unassigned) [II-13]	18 nM
CN(CC1CCN(c2ccc([C@H]3c4ccc(O)cc4CC[C@H]3c3ccccc3)cc2)CC1)C1CN(c2ccc3c(c2)CN(C2CCC(=O)NC2=O)C3=O)C1 (single isomer, unassigned) [II-14]	≥ 10000 nM
O=C1CCC(N2Cc3c(ccc(N4CCN(CC5CCN(c6ccc([C@@H]7c8ccc(O)cc8CC[C@@H]7c7ccccc7)cc6)CC5)CC4)c3F)C2=O)C(=O)N1 (single isomer, unassigned) [II-16]	2 nM
